According to ChEMBL document CHEMBL5463729, “Data for DCP probe BAY 1753011” (2023):
Values belong to the compound of their own block, whether it stands above or below them.

Key:
[1] = target: Cyclin-dependent kinase-like 2 (Homo sapiens) (UniProt Q92772); assay: Inhibition of CDKL2(h) at 10.0 µM in the Eurofins Kinase panel; settings: Compound concentration 10.0 uM
[2] = target: Platelet-derived growth factor receptor alpha (Homo sapiens) (UniProt P16234); assay: Inhibition of PDGFRalpha(h) at 10.0 µM in the Eurofins Kinase panel; settings: Compound concentration 10.0 uM
[3] = target: Motilin receptor (Homo sapiens) (UniProt O43193); settings: Compound concentration 10.0 uM
Motilin receptor (Homo sapiens), sequence (O43193 whole entry): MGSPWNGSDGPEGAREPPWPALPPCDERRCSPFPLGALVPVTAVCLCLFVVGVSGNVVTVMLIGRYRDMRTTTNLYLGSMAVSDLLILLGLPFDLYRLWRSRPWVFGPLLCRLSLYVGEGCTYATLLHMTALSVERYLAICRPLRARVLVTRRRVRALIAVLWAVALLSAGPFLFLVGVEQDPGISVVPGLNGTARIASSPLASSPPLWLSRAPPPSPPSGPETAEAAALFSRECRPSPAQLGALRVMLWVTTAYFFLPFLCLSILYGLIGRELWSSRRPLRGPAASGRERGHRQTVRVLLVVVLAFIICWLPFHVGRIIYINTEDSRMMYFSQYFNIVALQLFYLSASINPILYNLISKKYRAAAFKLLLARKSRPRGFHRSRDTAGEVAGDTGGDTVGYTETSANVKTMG

[4] = target: Tyrosine-protein kinase TXK (Homo sapiens) (UniProt P42681); assay: Inhibition of Txk(h) at 10.0 µM in the Eurofins Kinase panel; settings: Compound concentration 10.0 uM
Tyrosine-protein kinase TXK (Homo sapiens), sequence (P42681 whole entry): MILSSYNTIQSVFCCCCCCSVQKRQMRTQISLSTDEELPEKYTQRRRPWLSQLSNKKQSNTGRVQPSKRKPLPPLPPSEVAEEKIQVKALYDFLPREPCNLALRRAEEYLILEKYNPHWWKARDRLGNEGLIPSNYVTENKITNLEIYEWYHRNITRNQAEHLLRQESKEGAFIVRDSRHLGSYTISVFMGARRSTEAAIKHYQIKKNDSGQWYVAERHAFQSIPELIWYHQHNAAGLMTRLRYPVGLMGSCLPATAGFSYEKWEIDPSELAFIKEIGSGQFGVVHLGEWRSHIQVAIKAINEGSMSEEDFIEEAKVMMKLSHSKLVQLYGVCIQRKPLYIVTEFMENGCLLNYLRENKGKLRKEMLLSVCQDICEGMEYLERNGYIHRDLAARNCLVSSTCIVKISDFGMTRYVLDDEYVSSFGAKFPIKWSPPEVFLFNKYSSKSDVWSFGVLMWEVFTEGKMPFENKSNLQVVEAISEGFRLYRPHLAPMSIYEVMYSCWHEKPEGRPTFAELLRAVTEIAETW

[5] = target: Serine/threonine-protein kinase Sgk2 (Homo sapiens) (UniProt Q9HBY8); assay: Inhibition of SGK2(h) at 10.0 µM in the Eurofins Kinase panel; settings: Compound concentration 10.0 uM
Serine/threonine-protein kinase Sgk2 (Homo sapiens), sequence (Q9HBY8 whole entry): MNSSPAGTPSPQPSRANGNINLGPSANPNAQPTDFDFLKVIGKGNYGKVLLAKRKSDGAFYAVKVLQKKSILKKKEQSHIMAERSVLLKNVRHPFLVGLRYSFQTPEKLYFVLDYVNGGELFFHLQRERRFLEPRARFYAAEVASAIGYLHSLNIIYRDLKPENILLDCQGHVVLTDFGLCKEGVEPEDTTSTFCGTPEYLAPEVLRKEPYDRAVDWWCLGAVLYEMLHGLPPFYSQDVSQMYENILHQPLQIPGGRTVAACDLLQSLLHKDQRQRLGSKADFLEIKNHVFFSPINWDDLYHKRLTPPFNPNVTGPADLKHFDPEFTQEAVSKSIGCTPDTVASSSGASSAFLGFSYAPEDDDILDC

[6] = target: 5'-AMP-activated protein kinase catalytic subunit alpha-2 (Homo sapiens) (UniProt P54646); assay: Inhibition of AMPKalpha2(h) at 10.0 µM in the Eurofins Kinase panel; settings: Compound concentration 10.0 uM
[7] = target: T1, Alpha-1A adrenergic receptor (Homo sapiens) (UniProt P35348); assay: Inhibition of Adrenergic alpha1A at compound concentration of 10.0 uM in the Eurofins-Panlabs radioligand binding assay (Eurofins_assay_203110); set-up: ligand concentration 0.25 nM; settings: Rattus norvegicus; Compound concentration 10.0 uM
T1 sequence (whole entry): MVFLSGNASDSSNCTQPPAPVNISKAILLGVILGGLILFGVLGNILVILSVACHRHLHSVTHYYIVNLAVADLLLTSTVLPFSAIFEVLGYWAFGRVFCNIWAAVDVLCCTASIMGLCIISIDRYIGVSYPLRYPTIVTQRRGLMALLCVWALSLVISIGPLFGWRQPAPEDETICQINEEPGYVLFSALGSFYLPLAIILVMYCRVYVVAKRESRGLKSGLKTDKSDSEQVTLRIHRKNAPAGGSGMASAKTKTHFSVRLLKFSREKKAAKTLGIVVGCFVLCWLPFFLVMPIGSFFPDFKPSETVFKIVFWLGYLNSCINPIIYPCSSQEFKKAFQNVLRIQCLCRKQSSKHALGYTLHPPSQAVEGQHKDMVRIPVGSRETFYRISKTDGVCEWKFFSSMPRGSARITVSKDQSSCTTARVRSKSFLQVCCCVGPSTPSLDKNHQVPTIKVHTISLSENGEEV

[8] = target: Ephrin type-B receptor 4 (Homo sapiens) (UniProt P54760); assay: Inhibition of EphB4(h) at 10.0 µM in the Eurofins Kinase panel; settings: Compound concentration 10.0 uM
[9] = target: MAP kinase-interacting serine/threonine-protein kinase 1 (Homo sapiens) (UniProt Q9BUB5); assay: Inhibition of Mnk1(h) at 10.0 µM in the Eurofins Kinase panel; settings: Compound concentration 10.0 uM
MAP kinase-interacting serine/threonine-protein kinase 1 (Homo sapiens), sequence (Q9BUB5 whole entry, looked up): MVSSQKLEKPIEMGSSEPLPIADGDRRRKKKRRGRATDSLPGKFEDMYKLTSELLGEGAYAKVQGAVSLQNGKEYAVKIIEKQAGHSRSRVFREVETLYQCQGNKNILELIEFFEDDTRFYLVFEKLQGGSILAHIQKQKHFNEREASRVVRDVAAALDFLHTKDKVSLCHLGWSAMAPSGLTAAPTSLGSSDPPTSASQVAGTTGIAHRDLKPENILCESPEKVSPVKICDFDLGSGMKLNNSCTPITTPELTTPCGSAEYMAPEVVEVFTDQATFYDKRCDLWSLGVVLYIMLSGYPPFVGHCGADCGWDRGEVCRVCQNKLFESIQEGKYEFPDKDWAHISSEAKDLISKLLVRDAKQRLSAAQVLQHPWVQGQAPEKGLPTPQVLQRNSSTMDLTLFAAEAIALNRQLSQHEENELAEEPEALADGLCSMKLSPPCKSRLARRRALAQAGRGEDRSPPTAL

[10] = target: Adenosine Transporter (Cavia porcellus) (UniProt H0V4R7+H0UUG1+H0V3Z5); assay: Inhibition of Transporter, Adenosine at compound concentration of 10.0 uM in the Eurofins-Panlabs radioligand binding assay (Eurofins_assay_202000); type: protein assay; set-up: ligand concentration 0.5 nM, non-specific ligand with concentration 5 uM Nitrobenzylthioinosine, incubation time 30 min, incubation temperature 25 C; settings: Compound concentration 10.0 uM
[11] = target: Rho-associated protein kinase 2 (Homo sapiens) (UniProt O75116); assay: Inhibition of ROCK-II(h) at 10.0 µM in the Eurofins Kinase panel; settings: Compound concentration 10.0 uM
[12] = Inhibition of Platelet-Derived Growth Factor (PDGF) at 10 µM in the Eurofins-Panlabs radioligand binding assay (Eurofins_assay_265200); settings: Compound concentration 10 uM; Detection method Radioligand Binding; Incubation temperature 25 °C; Incubation time 45 min; Ligand [3H]PDGF; Ligand concentration 0.02 nM; Non-specific ligand with concentration 10 nM PDGF; Source of protein Swiss mouse 3T3 embryo cells
[13] = target: Epidermal growth factor receptor (Homo sapiens) (UniProt P00533); assay: Inhibition of Protein Tyrosine Kinase, EGF Receptor at 10 µM in the Eurofins-Panlabs enzyme assay (Eurofins_assay_170020); set-up: substrate with concentration; settings: Compound concentration 10.0 uM
[14] = target: Progesterone receptor (Homo sapiens) (UniProt P06401); assay: Inhibition of Progesterone PR-B at 10 µM in the Eurofins-Panlabs radioligand binding assay (Eurofins_assay_268020); set-up: ligand concentration 1.4 nM; settings: Compound concentration 10.0 uM
Progesterone receptor (Homo sapiens), sequence (P06401 whole entry): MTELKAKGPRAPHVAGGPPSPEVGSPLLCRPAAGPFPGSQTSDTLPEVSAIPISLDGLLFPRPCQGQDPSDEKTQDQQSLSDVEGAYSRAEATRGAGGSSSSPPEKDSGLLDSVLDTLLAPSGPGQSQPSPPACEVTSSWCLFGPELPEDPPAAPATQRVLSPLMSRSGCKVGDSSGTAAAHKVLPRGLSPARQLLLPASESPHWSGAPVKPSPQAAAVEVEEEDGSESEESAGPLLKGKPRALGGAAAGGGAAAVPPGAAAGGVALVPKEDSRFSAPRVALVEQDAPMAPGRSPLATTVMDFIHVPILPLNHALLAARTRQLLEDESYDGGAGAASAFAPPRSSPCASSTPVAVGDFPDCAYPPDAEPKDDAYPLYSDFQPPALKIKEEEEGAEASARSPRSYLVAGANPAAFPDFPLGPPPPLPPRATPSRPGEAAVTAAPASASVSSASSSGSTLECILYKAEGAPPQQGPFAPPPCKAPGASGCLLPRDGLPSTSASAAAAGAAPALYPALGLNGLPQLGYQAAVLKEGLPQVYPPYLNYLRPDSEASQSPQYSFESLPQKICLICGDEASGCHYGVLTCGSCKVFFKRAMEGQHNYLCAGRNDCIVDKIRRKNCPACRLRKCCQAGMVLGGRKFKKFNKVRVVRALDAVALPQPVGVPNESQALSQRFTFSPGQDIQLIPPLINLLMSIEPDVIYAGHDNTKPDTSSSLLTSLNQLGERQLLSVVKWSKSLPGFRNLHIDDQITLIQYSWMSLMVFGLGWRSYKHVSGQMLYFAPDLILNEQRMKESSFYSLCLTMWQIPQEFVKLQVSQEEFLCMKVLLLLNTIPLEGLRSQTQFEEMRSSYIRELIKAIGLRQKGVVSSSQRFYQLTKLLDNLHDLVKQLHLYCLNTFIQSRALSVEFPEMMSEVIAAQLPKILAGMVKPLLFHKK

[15] = target: Neuropeptide Y receptor type 1 (Homo sapiens) (UniProt P25929); assay: Inhibition of Neuropeptide Y Y1 at 10 µM in the Eurofins-Panlabs radioligand binding assay (Eurofins_assay_257010); settings: Compound concentration 10.0 uM
Neuropeptide Y receptor type 1 (Homo sapiens), sequence (P25929 whole entry): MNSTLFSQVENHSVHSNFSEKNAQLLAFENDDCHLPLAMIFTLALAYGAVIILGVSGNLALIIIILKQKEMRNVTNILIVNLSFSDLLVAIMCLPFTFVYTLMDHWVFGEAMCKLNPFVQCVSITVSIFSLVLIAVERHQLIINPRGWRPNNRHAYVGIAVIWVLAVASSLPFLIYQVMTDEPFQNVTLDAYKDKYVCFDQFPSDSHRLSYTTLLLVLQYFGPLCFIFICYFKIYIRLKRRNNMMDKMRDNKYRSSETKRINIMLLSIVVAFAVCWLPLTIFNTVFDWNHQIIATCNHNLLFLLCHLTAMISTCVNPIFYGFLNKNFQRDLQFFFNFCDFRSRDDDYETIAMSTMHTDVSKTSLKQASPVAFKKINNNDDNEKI

[16] = target: Mitogen-activated protein kinase 3 (Homo sapiens) (UniProt P27361); assay: Inhibition of Protein Serine/Threonine Kinase, MAPK3 (ERK1) at 10 µM in the Eurofins-Panlabs enzyme assay (Eurofins_assay_171000); settings: Compound concentration 10.0 uM
Mitogen-activated protein kinase 3 (Homo sapiens), sequence (P27361 whole entry): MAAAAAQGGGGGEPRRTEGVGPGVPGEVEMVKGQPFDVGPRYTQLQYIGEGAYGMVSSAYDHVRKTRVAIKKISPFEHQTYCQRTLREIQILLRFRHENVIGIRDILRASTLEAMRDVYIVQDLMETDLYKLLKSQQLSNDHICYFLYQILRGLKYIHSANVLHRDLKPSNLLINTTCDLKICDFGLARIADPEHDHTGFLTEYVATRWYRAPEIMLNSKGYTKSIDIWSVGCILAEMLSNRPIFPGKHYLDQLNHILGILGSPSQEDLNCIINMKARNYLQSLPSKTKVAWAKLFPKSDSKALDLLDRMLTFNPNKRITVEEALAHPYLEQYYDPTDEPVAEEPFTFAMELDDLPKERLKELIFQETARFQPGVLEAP

[17] = target: Matrix metalloproteinase-9 (Homo sapiens) (UniProt P14780); assay: Inhibition of Peptidase, Matrix Metalloproteinase-9 (MMP-9) at 10 µM in the Eurofins-Panlabs enzyme assay (Eurofins_assay_114910); set-up: substrate with concentration; settings: Compound concentration 10.0 uM
[18] = target: Melanocortin receptor 4 (Homo sapiens) (UniProt P32245); assay: Inhibition of Melanocortin MC4 at 10 µM in the Eurofins-Panlabs radioligand binding assay (Eurofins_assay_251350); set-up: ligand concentration 0.02 nM; settings: Compound concentration 10.0 uM
[19] = target: Thromboxane-A synthase (Homo sapiens) (UniProt P24557); assay: Inhibition of Thromboxane Synthase at compound concentration of 10.0 uM in the Eurofins-Panlabs enzyme assay (Eurofins_assay_194020); set-up: substrate with concentration; settings: Compound concentration 10.0 uM
Thromboxane-A synthase (Homo sapiens), sequence (P24557 whole entry): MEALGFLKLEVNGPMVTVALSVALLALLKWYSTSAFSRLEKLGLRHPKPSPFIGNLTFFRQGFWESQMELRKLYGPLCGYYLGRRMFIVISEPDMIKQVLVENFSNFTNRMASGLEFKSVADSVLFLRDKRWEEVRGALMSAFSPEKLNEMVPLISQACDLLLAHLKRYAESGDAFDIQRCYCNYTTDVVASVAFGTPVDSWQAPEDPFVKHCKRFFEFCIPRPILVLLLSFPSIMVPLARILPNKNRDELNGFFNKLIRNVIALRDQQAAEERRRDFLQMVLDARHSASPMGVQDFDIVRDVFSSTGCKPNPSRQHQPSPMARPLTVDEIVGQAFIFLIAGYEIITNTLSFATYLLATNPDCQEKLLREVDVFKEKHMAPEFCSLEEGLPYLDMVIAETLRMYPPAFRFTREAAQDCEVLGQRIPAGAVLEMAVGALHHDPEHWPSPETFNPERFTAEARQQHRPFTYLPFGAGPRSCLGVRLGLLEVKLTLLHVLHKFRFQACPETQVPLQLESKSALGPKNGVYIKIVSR

[20] = target: Sodium-dependent noradrenaline transporter (Homo sapiens, UniProt P23975); assay: GPCRScan assay: inhibition of NET; set-up: radioligand conc. used [nm] 1.3 – 5.0, parental cells stable HEK
Sodium-dependent noradrenaline transporter, sequence (P23975 whole entry): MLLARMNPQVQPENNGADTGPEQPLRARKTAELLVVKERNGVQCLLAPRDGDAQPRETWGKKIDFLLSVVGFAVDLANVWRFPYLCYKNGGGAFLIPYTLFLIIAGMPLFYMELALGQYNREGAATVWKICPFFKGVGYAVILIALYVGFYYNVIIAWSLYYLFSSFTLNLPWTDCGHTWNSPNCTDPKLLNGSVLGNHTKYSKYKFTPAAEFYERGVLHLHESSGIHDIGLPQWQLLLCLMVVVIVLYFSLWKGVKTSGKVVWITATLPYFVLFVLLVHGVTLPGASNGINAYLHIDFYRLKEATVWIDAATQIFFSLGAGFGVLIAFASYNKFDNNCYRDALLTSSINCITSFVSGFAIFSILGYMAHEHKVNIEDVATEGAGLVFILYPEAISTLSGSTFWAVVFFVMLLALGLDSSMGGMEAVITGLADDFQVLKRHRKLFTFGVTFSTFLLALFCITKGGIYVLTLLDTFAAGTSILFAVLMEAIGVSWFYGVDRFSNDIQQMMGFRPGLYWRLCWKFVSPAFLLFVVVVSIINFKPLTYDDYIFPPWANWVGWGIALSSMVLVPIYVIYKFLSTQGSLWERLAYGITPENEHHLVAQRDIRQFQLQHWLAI

Rattus norvegicus = species on record: Rattus norvegicus; assay: Inhibition of Rolipram at 10 µM in the Eurofins-Panlabs radioligand binding assay (Eurofins_assay_268811); type: protein assay; set-up: ligand concentration 1.8 nM; settings: Compound concentration 10.0 uM
Homo sapiens = species on record: Homo sapiens; assay: Inhibition of Phosphodiesterase PDE4 at compound concentration of 10.0 uM in the Eurofins-Panlabs enzyme assay (Eurofins_assay_154000); type: protein assay; set-up: substrate with concentration 1.01 uM [3 H]cAMP + cAMP, incubation time 20 min, incubation temperature 25 C; settings: Compound concentration 10.0 uM
[21] = target: Polyunsaturated fatty acid lipoxygenase ALOX15 (Homo sapiens) (UniProt P16050); assay: Inhibition of Lipoxygenase 15-LO at 10 µM in the Eurofins-Panlabs enzyme assay (Eurofins_assay_138000); settings: Oryctolagus cuniculus; Compound concentration 10.0 uM
[22] = target: C-C chemokine receptor type 2 (Homo sapiens) (UniProt P41597); assay: Inhibition of Chemokine CCR2B at 10 µM in the Eurofins-Panlabs radioligand binding assay (Eurofins_assay_217550); settings: Compound concentration 10.0 uM
C-C chemokine receptor type 2 (Homo sapiens), sequence (P41597 whole entry, looked up): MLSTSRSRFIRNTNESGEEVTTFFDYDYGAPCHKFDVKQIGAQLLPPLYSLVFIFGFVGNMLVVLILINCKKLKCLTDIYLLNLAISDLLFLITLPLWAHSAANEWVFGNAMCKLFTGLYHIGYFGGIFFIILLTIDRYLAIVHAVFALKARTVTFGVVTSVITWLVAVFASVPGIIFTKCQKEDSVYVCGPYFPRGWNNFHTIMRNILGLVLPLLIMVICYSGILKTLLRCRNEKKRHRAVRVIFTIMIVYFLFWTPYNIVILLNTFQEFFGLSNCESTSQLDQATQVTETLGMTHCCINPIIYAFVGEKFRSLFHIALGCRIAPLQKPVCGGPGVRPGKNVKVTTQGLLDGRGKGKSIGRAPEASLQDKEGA

[23] = target: Tyrosine-protein kinase Lck (Homo sapiens) (UniProt P06239); assay: Inhibition of Protein Tyrosine Kinase, LCK at 10 µM in the Eurofins-Panlabs enzyme assay (Eurofins_assay_176020); settings: Compound concentration 10.0 uM
[24] = target: 5-hydroxytryptamine receptor 6 (Homo sapiens) (UniProt P50406); assay: Inhibition of Serotonin (5-Hydroxytryptamine) 5-HT6 at 10 µM in the Eurofins-Panlabs radioligand binding assay (Eurofins_assay_272200); settings: Compound concentration 10.0 uM
[25] = target: Receptor-type tyrosine-protein phosphatase C (Homo sapiens) (UniProt P08575); assay: Inhibition of Protein Tyrosine Phosphatase, PTPRC (CD45) at 10 µM in the Eurofins-Panlabs enzyme assay (Eurofins_assay_190010); settings: Compound concentration 10.0 uM
[26] = target: Calcitonin receptor (Homo sapiens) (UniProt P30988); assay: Inhibition of Calcitonin at 10 µM in the Eurofins-Panlabs radioligand binding assay (Eurofins_assay_213610); settings: Compound concentration 10.0 uM

inhibition [1]: -7.41% | inhibition [2]: -5.3% | inhibition [3]: 12% | inhibition [4]: -5.05% | inhibition [5]: -3.39% | inhibition [6]: -2.83% | inhibition [7]: 3% | inhibition [8]: -2.17% | inhibition [9]: -9.85%
Structure (SMILES): O=c1n(Cc2cncn2-c2cccc(Cl)c2)nc(-c2ccc(Cl)cc2)n1C[C@H](O)C(F)(F)F

Structure (SMILES): C[C@H](O)c1nc(Cn2nc(-c3ccc(Cl)cc3)n(C[C@H](O)C(F)(F)F)c2=O)nn1-c1cccc(Cl)c1 [PECAVAPTAN]
inhibition [10]: 21% | inhibition [11]: 18.1% | inhibition at 10 µM [12]: 5% (not active) | inhibition [13]: -6% | inhibition [14]: 0% | inhibition [15]: 11% | inhibition [16]: -7% | inhibition [17]: -2% | inhibition [18]: 4% | inhibition [19]: -6% | Ki ([20]; read-out: Ki): 1.32 µM | Ki ([20]; read-out: pKi (converted)): 1.32 µM | inhibition (Rattus norvegicus): -2% | inhibition (Homo sapiens): -4% | inhibition [21]: 4% | inhibition [22]: 2% | inhibition [23]: -9% | inhibition [24]: 4% | inhibition [25]: 0% | inhibition [26]: -7%
